Laboratory results reported in patent publication EP4786487A1, “PEPTIDE” (Peptidream Inc, priority 2023, dated 2025).
Where two headings read alike, the source gives them in different places. Starred links: 1 amine or outer side, 2 acyl side, 3 side chain; linkers in the order of their positions; H or OH if unused. Positions of bridges follow the written chain, without caps; N, C: chain ends. Non-standard residues stand in square brackets, D forms with d. Residues, ends and D or L forms follow the SMILES beside them. *: point of attachment. Phe(3-OCH2COOH) = N[C@@H](Cc1cccc(OCC(=O)O)c1)C(=O)O; Piperidine(4-CH2CH2CONH2) = NC(=O)CCC1CCN(*)CC1; Phe(4-COOH) = N[C@@H](Cc1ccc(C(=O)O)cc1)C(=O)O; Trp(6-aza) = N[C@@H](Cc1c[nH]c2cnccc12)C(=O)O; Piperazinyl(4-CH2COOH) = O=C(O)CN1CCN(*)CC1; Piperidinyl(4-CH2COOH) = O=C(O)CC1CCN(*)CC1; Gly(decyl) = CCCCCCCCCC[C@H](N)C(=O)O; X1 = CCCCCCC[C@H](N[*:1])C(=O)[*:2]; NMeCha = CN[C@@H](CC1CCCCC1)C(=O)O; NMeF = CN[C@@H](Cc1ccccc1)C(=O)O; NMeE = CN[C@@H](CCC(=O)O)C(=O)O; NMeA = CN[C@@H](C)C(=O)O; X9 = NC(=O)CC1CCN(*)CC1; Sar = CNCC(=O)O

Key:
Format in all cases: cell-based
Myostatin [1] = target: T1, Myostatin (Homo sapiens, UniProt O14793); test: Reporter gene assay for myostatin signaling in HepG2 cell line, Evaluation Procedure (1), myostatin inhibition; settings: read-out: IC50 (Luciferase) Myostatin HepG2
T1 construct: active myostatin (also called mature myostatin) is a homodimer consisting of two C-terminal growth factor domains; purchased R&D systems 788-G8/CF
T1 sequence (O14793 267-375): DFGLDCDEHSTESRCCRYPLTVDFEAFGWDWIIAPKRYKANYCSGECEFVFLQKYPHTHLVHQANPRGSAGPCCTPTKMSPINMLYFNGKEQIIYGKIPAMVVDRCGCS
In short: (§1)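 IC50 derived from One-Glo luciferase luminescence after 20–24 h at 37 °C. Peptides titrated 4-fold at 0.006–100 nmol/L against myostatin or 0.12–2000 nmol/L against GDF-11 in HepG2 cells carrying a transfected CAGA12-luciferase reporter, kept in 0.1% BSA EMEM.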

Myostatin [2] = test: as above; settings: GDF-11 IC50 versus Myostatin IC50
In short: as §1

GDF-11 = target: T2, GDF-11 (Homo sapiens, UniProt O95390); test: Reporter gene assay for myostatin signaling in HepG2 cell line, Evaluation Procedure (1), GDF-11 inhibition; settings: read-out: IC50 (Luciferase) GDF-11 HepG2
T2 construct: purchased R&D systems 1958-GD-G8/CF
T2 sequence (O95390 299-407): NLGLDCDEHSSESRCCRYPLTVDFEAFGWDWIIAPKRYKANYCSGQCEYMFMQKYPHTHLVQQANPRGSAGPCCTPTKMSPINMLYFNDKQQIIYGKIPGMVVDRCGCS
In short: as §1

Row | IC50 (Myostatin [1]; Method A: Myostatin 10 ng/mL) [nM] | IC50 (GDF-11; Method A: GDF-11 10 ng/mL) [nM] | IC50 (Myostatin [1]; Method B: Myostatin 1 ng/mL) [nM] | IC50 (GDF-11; Method B: GDF-11 1 ng/mL) [nM] | SMILES | Selectivity (Myostatin [2]; Method A) | Selectivity (Myostatin [2]; Method B)
1 | 5.7 | 2440 | – | – | CCCCCCC[C@@H]1NC(=O)[C@H](Cc2ccccc2)N(C)C(=O)[C@H](CCCNC(=N)N)NC(=O)[C@H](Cc2ccc(C(=O)O)cc2)NC(=O)[C@H](Cc2cccc(OCC(=O)O)c2)NC(=O)[C@H]2CCCN2C(=O)[C@H]([C@@H](C)CC)NC(=O)[C@H](CC2CCCCC2)N(C)C(=O)[C@H](Cc2ccc(O)cc2)NC(=O)[C@H](Cc2c[nH]c3ccccc23)NC(=O)[C@@H](CCC(=O)O)NC(=O)[C@H](C)NC(=O)CSC[C@H](C(=O)N2CCN(CC(=O)O)CC2)NC(=O)[C@H](Cc2ccccc2)N(C)C(=O)[C@H](C)N(C)C1=O [Myostatin_99_v253] ({CH2CO}-A[dE]WY[NMeCha]I[dP][Phe(3-OCH2COOH)][Phe(4-COOH)]R[NMeF][X1][NMeA][NMeF][dC]-{Piperazinyl(4-CH2COOH)}; thioether N-15) | 428 | –
2 | 3.6 | 3310 | – | – | CCCCCCC[C@@H]1NC(=O)[C@H](Cc2ccccc2)N(C)C(=O)[C@H](CCCNC(=N)N)NC(=O)[C@H](Cc2ccc(C(=O)O)cc2)NC(=O)[C@H](Cc2cccc(OCC(=O)O)c2)NC(=O)[C@H]2CCCN2C(=O)[C@H]([C@@H](C)CC)NC(=O)[C@H](Cc2ccccc2)N(C)C(=O)[C@H](Cc2ccc(O)cc2)NC(=O)[C@H](Cc2c[nH]c3ccccc23)NC(=O)[C@@H](CCC(=O)O)NC(=O)[C@H](C)NC(=O)CSC[C@H](C(=O)N2CCN(CC(=O)O)CC2)NC(=O)[C@H](Cc2ccccc2)N(C)C(=O)[C@H](C)N(C)C1=O [Myostatin_99_v254] ({CH2CO}-A[dE]WY[NMeF]I[dP][Phe(3-OCH2COOH)][Phe(4-COOH)]R[NMeF][X1][NMeA][NMeF][dC]-{Piperazinyl(4-CH2COOH)}; thioether N-15) | 921 | –
3 | 1.6 | 191 | – | – | CCCCCCC[C@@H]1NC(=O)[C@H](Cc2ccccc2)N(C)C(=O)[C@H](CCCNC(=N)N)NC(=O)[C@H](Cc2ccc(C(=O)O)cc2)NC(=O)[C@H](Cc2cccc(OCC(=O)O)c2)NC(=O)CN(C)C(=O)[C@H]([C@@H](C)CC)NC(=O)[C@H](CC2CCCCC2)N(C)C(=O)[C@H](Cc2ccc(O)cc2)NC(=O)[C@H](Cc2c[nH]c3ccccc23)NC(=O)[C@@H](CCC(=O)O)NC(=O)[C@H](C)NC(=O)CSC[C@H](C(=O)N2CCN(CC(=O)O)CC2)NC(=O)[C@H](Cc2ccccc2)N(C)C(=O)[C@H](C)N(C)C1=O [Myostatin_99_v255] ({CH2CO}-A[dE]WY[NMeCha]I[Sar][Phe(3-OCH2COOH)][Phe(4-COOH)]R[NMeF][X1][NMeA][NMeF][dC]-{Piperazinyl(4-CH2COOH)}; thioether N-15) | 119 | –
4 | – | – | 0.09 | 25 | CCCCCCCCCC[C@@H]1NC(=O)[C@H](Cc2ccccc2)N(C)C(=O)[C@H](CCCNC(=N)N)NC(=O)[C@H](Cc2ccc(C(=O)O)cc2)NC(=O)[C@H](Cc2cccc(OCC(=O)O)c2)NC(=O)[C@H]2CCCN2C(=O)[C@H]([C@@H](C)CC)NC(=O)[C@H](Cc2ccccc2)N(C)C(=O)[C@H](Cc2ccc(O)cc2)NC(=O)[C@H](Cc2c[nH]c3ccccc23)NC(=O)[C@H](C)NC(=O)[C@H](C)NC(=O)CSC[C@H](C(=O)N2CCN(CC(=O)O)CC2)NC(=O)[C@H](Cc2ccccc2)N(C)C(=O)[C@H](CCC(=O)O)N(C)C1=O [Myostatin_99_v309] ({CH2CO}-AAWY[NMeF]I[dP][Phe(3-OCH2COOH)][Phe(4-COOH)]R[NMeF][Gly(decyl)][NMeE][NMeF][dC]-{Piperazinyl(4-CH2COOH)}; thioether N-15) | – | 287
5 | – | – | 0.1 | 56.8 | CCCCCCC[C@@H]1NC(=O)[C@H](Cc2ccccc2)N(C)C(=O)[C@H](CCCNC(=N)N)NC(=O)[C@H](Cc2ccc(C(=O)O)cc2)NC(=O)[C@H](Cc2cccc(OCC(=O)O)c2)NC(=O)CN(C)C(=O)[C@H]([C@@H](C)CC)NC(=O)[C@H](Cc2ccccc2)N(C)C(=O)[C@H](Cc2ccc(O)cc2)NC(=O)[C@H](Cc2c[nH]c3ccccc23)NC(=O)[C@H](C)NC(=O)[C@H](C)NC(=O)CSC[C@H](C(=O)N2CCC(CC(N)=O)CC2)NC(=O)[C@H](Cc2ccccc2)N(C)C(=O)[C@H](CCC(=O)O)N(C)C1=O [Myostatin_99_v315] ({CH2CO}-AAWY[NMeF]I[Sar][Phe(3-OCH2COOH)][Phe(4-COOH)]R[NMeF][X1][NMeE][NMeF][dC]-X9; thioether N-15) | – | 541.6
6 | – | – | 0.37 | 89.7 | CCCCCCC[C@@H]1NC(=O)[C@H](Cc2ccccc2)N(C)C(=O)[C@H](CCCNC(=N)N)NC(=O)[C@H](Cc2ccc(C(=O)O)cc2)NC(=O)[C@H](Cc2cccc(OCC(=O)O)c2)NC(=O)CN(C)C(=O)[C@H]([C@@H](C)CC)NC(=O)[C@H](Cc2ccccc2)N(C)C(=O)[C@H](Cc2ccc(O)cc2)NC(=O)[C@H](Cc2c[nH]c3ccccc23)NC(=O)[C@H](C)NC(=O)[C@H](C)NC(=O)CSC[C@H](C(=O)N2CCC(CCC(N)=O)CC2)NC(=O)[C@H](Cc2ccccc2)N(C)C(=O)[C@H](CCC(=O)O)N(C)C1=O [Myostatin_99_v316] ({CH2CO}-AAWY[NMeF]I[Sar][Phe(3-OCH2COOH)][Phe(4-COOH)]R[NMeF][X1][NMeE][NMeF][dC]-{Piperidine(4-CH2CH2CONH2)}; thioether N-15) | – | 239.8
7 | – | – | 0.32 | 46.6 | CCCCCCCCCC[C@@H]1NC(=O)[C@H](Cc2ccccc2)N(C)C(=O)[C@H](CCCNC(=N)N)NC(=O)[C@H](Cc2ccc(C(=O)O)cc2)NC(=O)[C@H](Cc2cccc(OCC(=O)O)c2)NC(=O)[C@H]2CCCN2C(=O)[C@H]([C@@H](C)CC)NC(=O)[C@H](Cc2ccccc2)N(C)C(=O)[C@H](Cc2ccc(O)cc2)NC(=O)[C@H](Cc2c[nH]c3ccccc23)NC(=O)[C@H](C)NC(=O)[C@H](C)NC(=O)CSC[C@H](C(=O)N2CCC(CC(=O)O)CC2)NC(=O)[C@H](Cc2ccccc2)N(C)C(=O)[C@H](CCC(=O)O)N(C)C1=O [Myostatin_99_v335] ({CH2CO}-AAWY[NMeF]I[dP][Phe(3-OCH2COOH)][Phe(4-COOH)]R[NMeF][Gly(decyl)][NMeE][NMeF][dC]-{Piperidinyl(4-CH2COOH)}; thioether N-15) | – | 145.0
8 | – | – | 0.38 | 114 | CCCCCCCCCC[C@@H]1NC(=O)[C@H](Cc2ccccc2)N(C)C(=O)[C@H](CCCNC(=N)N)NC(=O)[C@H](Cc2ccc(C(=O)O)cc2)NC(=O)[C@H](Cc2cccc(OCC(=O)O)c2)NC(=O)[C@H]2CCCN2C(=O)[C@H]([C@@H](C)CC)NC(=O)[C@H](Cc2ccccc2)N(C)C(=O)[C@H](Cc2ccc(O)cc2)NC(=O)[C@H](Cc2c[nH]c3cnccc23)NC(=O)[C@H](C)NC(=O)[C@H](C)NC(=O)CSC[C@H](C(=O)N2CCC(CC(=O)O)CC2)NC(=O)[C@H](Cc2ccccc2)N(C)C(=O)[C@H](CCC(=O)O)N(C)C1=O [Myostatin_99_v338] ({CH2CO}-AA[Trp(6-aza)]Y[NMeF]I[dP][Phe(3-OCH2COOH)][Phe(4-COOH)]R[NMeF][Gly(decyl)][NMeE][NMeF][dC]-{Piperidinyl(4-CH2COOH)}; thioether N-15) | – | 299.8
